The supplement of paper PMC11061612

Key:
[1] = system: CAL-148 (Breast Carcinoma); assay: Bliss excess, mean over the matrix (fraction); higher = more synergy
Outline: (§1)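 Bliss excess equals the observed combination effect minus the expected value EA + EB − EA·EB, where EA and EB are the effects of each agent alone. Combination Emax is the second-highest inhibition within the matrix. Inhibition was scaled from CellTiter-Glo 2.0 luminescence, with 0 set by vehicle wells and 1 by blank wells, after 72 hours of two-drug dosing of cells plated in 1536-well plates.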

[2] = system: DEL (T-Cell Non-Hodgkin's Lymphoma); assay: as above
Outline: as §1

[3] = system: EC-GI-10 (Esophageal Squamous Cell Carcinoma); assay: as above
Outline: as §1

[4] = system: HO-1-N-1 (Oral Cavity Carcinoma); assay: as above
Outline: as §1

[5] = system: KYSE-520 (Esophageal Squamous Cell Carcinoma); assay: as above
Outline: as §1

[6] = system: TE-9 (Esophageal Squamous Cell Carcinoma); assay: as above
Outline: as §1

[7] = system: B-CPAP (Thyroid Gland Carcinoma); assay: combination Emax (second highest fraction inhibited in the dose matrix, 72 h); higher = more inhibition; extreme values may be limits of the assay
Outline: as §1

[8] = system: CaR-1 (Colorectal Carcinoma); assay: as above
Outline: as §1

[9] = system: Daoy (Other Solid Carcinomas); assay: as above
Outline: as §1

[10] = system: HCC-78 (Lung Adenocarcinoma); assay: as above
Outline: as §1

[11] = system: HO-1-N-1 (Oral Cavity Carcinoma); assay: as above
Outline: as §1

KELLY (Neuroblastoma) = assay: as above
Outline: as §1

[12] = system: KP-1N (Pancreatic Carcinoma); assay: as above
Outline: as §1

[13] = system: KURAMOCHI (Ovarian Carcinoma); assay: as above
Outline: as §1

[14] = system: LNCaP-Clone-FGC (Prostate Carcinoma); assay: as above
Outline: as §1

[15] = system: MDA-MB-361 (Breast Carcinoma); assay: as above
Outline: as §1

[16] = system: NCI-H2085 (Non-Small Cell Lung Carcinoma); assay: as above
Outline: as §1

[17] = system: NCI-H82 (Small Cell Lung Carcinoma); assay: as above
Outline: as §1

[18] = system: RO82-W-1 (Thyroid Gland Carcinoma); assay: as above
Outline: as §1

[19] = system: SK-ES-1 (Ewing's Sarcoma); assay: as above
Outline: as §1

SMILES: COc1cccc2c1C(=O)c1c(O)c3c(c(O)c1C2=O)C[C@@](O)(C(=O)CO)C[C@@H]3O[C@H]1C[C@H](N)[C@H](O)[C@H](C)O1 [Doxorubicin] + Cc1cc2ncnn2cc1Nc1ncc2c(n1)n(C1CCOCC1)c(=O)n2C [AZD7648] (first compound max 1 µM, 7x7, partner max 10 µM)
- Bliss excess [1]: 0.165
- Bliss excess [2]: 0.0935
- Bliss excess [3]: 0.0887
- Bliss excess [4]: 0.0808
- Bliss excess [5]: -0.0086
- Bliss excess [6]: -0.0393
- combination Emax [7]: 0.941
- combination Emax [8]: 0.807
- combination Emax [9]: 0.875
- combination Emax [10]: 0.751
- combination Emax [11]: 0.979
- combination Emax (KELLY (Neuroblastoma)): 0.789
- combination Emax [12]: 0.675
- combination Emax [13]: 0.546
- combination Emax [14]: 0.819
- combination Emax [15]: 0.537
- combination Emax [16]: 0.546
- combination Emax [17]: 0.949
- combination Emax [18]: 0.628
- combination Emax [19]: 0.983

SMILES: COc1cc2ncnc(Nc3ccc(F)c(Cl)c3)c2cc1OCCCN1CCOCC1 [Gefitinib] + CC(C)n1c(=O)n(C)c2cnc3cc(F)c(-c4ccc(OCCCN5CCCCC5)nc4)cc3c21 [AZD1390] (first compound max 10 µM, 7x7, partner max 0.3 µM)
- Bliss excess [1]: -0.0344
- Bliss excess [2]: -0.0317
- Bliss excess [3]: -0.0526
- Bliss excess [4]: -0.0506
- Bliss excess [5]: -0.043
- Bliss excess [6]: -0.0522
- combination Emax [7]: 0.108
- combination Emax [8]: 0.227
- combination Emax [9]: 0.0924
- combination Emax [10]: 0.133
- combination Emax [11]: 0.568
- combination Emax (KELLY (Neuroblastoma)): 0.189
- combination Emax [12]: 0.004
- combination Emax [13]: 0.128
- combination Emax [14]: 0.089
- combination Emax [15]: 0.207
- combination Emax [16]: 0.225
- combination Emax [17]: 0.386
- combination Emax [18]: 0.164
- combination Emax [19]: 0.341

SMILES: CS(=O)(=O)CCNCc1ccc(-c2ccc3ncnc(Nc4ccc(OCc5cccc(F)c5)c(Cl)c4)c3c2)o1 [Lapatinib] + C[C@@H](Oc1cc(-c2cnn(C3CCNCC3)c2)cnc1N)c1c(Cl)ccc(F)c1Cl [Crizotinib] (first compound max 10 µM, 7x7, partner max 10 µM)
- Bliss excess [1]: -0.0105
- Bliss excess [2]: 0.0074
- Bliss excess [3]: -0.0379
- Bliss excess [4]: -0.0493
- Bliss excess [5]: -0.0352
- Bliss excess [6]: -0.0194
- combination Emax [7]: 0.984
- combination Emax [8]: 0.858
- combination Emax [9]: 0.934
- combination Emax [10]: 0.882
- combination Emax [11]: 0.979
- combination Emax (KELLY (Neuroblastoma)): 0.97
- combination Emax [12]: 0.809
- combination Emax [13]: 0.721
- combination Emax [14]: 0.804
- combination Emax [15]: 0.859
- combination Emax [16]: 0.673
- combination Emax [17]: 0.936
- combination Emax [18]: 0.203
- combination Emax [19]: 0.938

SMILES: CC(=O)c1c(C)c2cnc(Nc3ccc(N4CCNCC4)cn3)nc2n(C2CCCC2)c1=O [Palbociclib] + CC1(C)CCC(CN2CCN(c3ccc(C(=O)NS(=O)(=O)c4ccc(NCC5CCOCC5)c([N+](=O)[O-])c4)c(Oc4cnc5[nH]ccc5c4)c3)CC2)=C(c2ccc(Cl)cc2)C1 [Venetoclax] (first compound max 10 µM, 7x7, partner max 1 µM)
- Bliss excess [1]: -0.0161
- Bliss excess [2]: 0.027
- Bliss excess [3]: -0.0031
- Bliss excess [4]: -0.0322
- Bliss excess [5]: -0.0442
- Bliss excess [6]: -0.035
- combination Emax [7]: 0.237
- combination Emax [8]: 0.0978
- combination Emax [9]: 0.218
- combination Emax [10]: 0.144
- combination Emax [11]: 0.453
- combination Emax (KELLY (Neuroblastoma)): 0.52
- combination Emax [12]: 0.212
- combination Emax [13]: 0.0917
- combination Emax [14]: 0.405
- combination Emax [15]: 0.163
- combination Emax [16]: 0.167
- combination Emax [17]: 0.634
- combination Emax [18]: 0.174
- combination Emax [19]: 0.749

SMILES: CC(=O)c1c(C)c2cnc(Nc3ccc(N4CCNCC4)cn3)nc2n(C2CCCC2)c1=O [Palbociclib] + Cc1c2c(nn1C)CSCc1cc(n(C)n1)CSc1cc(c3ccccc3c1)OCCCc1c(C(=O)O)n(C)c3c-2c(Cl)ccc13 [AZD5991] (first compound max 10 µM, 7x7, partner max 1 µM)
- Bliss excess [1]: -0.0063
- Bliss excess [2]: 0.0007
- Bliss excess [3]: 0.0305
- Bliss excess [4]: -0.0554
- Bliss excess [5]: -0.0686
- Bliss excess [6]: -0.0334
- combination Emax [7]: 0.427
- combination Emax [8]: 0.229
- combination Emax [9]: 0.21
- combination Emax [10]: 0.251
- combination Emax [11]: 0.597
- combination Emax (KELLY (Neuroblastoma)): 0.897
- combination Emax [12]: 0.212
- combination Emax [13]: 0.358
- combination Emax [14]: 0.5
- combination Emax [15]: 0.586
- combination Emax [16]: 0.167
- combination Emax [17]: 0.98
- combination Emax [18]: 0.189
- combination Emax [19]: 0.851

SMILES: CC(=O)c1c(C)c2cnc(Nc3ccc(N4CCNCC4)cn3)nc2n(C2CCCC2)c1=O [Palbociclib] + Cn1cnc2c(F)c(Nc3ccc(Br)cc3Cl)c(C(=O)NOCCO)cc21 [Selumetinib] (first compound max 10 µM, 7x7, partner max 10 µM)
- Bliss excess [1]: -0.0462
- Bliss excess [2]: 0.0224
- Bliss excess [3]: -0.0407
- Bliss excess [4]: 0.0927
- Bliss excess [5]: 0.0617
- Bliss excess [6]: 0.0099
- combination Emax [7]: 0.356
- combination Emax [8]: 0.307
- combination Emax [9]: 0.18
- combination Emax [10]: 0.168
- combination Emax [11]: 0.745
- combination Emax (KELLY (Neuroblastoma)): 0.626
- combination Emax [12]: 0.196
- combination Emax [13]: 0.227
- combination Emax [14]: 0.451
- combination Emax [15]: 0.154
- combination Emax [16]: 0.231
- combination Emax [17]: 0.627
- combination Emax [18]: 0.178
- combination Emax [19]: 0.622
